Two molecules from ChEMBL document CHEMBL3351915 (Bioorg Med Chem Lett, 2015) can be followed below.

The subject of one series is Plasma. Nature of the series: Total steady state plasma concentration in Sprague-Dawley rat at 5 mg/kg, po. It counts as ADME, organism-based. Also noted: dose 5 mg/kg, route oral. The settings on record: in vivo.
In series [1] the target is ATP-dependent translocase ABCB1 (Homo sapiens, UniProt P08183). Put plainly: Inhibition of human recombinant MDR1 in cell membrane fraction preincubated for 5 mins measured after 40 mins by Pgp-Glo luciferase assay. It counts as cell-based.
Chain of ATP-dependent translocase ABCB1 (P08183 whole entry): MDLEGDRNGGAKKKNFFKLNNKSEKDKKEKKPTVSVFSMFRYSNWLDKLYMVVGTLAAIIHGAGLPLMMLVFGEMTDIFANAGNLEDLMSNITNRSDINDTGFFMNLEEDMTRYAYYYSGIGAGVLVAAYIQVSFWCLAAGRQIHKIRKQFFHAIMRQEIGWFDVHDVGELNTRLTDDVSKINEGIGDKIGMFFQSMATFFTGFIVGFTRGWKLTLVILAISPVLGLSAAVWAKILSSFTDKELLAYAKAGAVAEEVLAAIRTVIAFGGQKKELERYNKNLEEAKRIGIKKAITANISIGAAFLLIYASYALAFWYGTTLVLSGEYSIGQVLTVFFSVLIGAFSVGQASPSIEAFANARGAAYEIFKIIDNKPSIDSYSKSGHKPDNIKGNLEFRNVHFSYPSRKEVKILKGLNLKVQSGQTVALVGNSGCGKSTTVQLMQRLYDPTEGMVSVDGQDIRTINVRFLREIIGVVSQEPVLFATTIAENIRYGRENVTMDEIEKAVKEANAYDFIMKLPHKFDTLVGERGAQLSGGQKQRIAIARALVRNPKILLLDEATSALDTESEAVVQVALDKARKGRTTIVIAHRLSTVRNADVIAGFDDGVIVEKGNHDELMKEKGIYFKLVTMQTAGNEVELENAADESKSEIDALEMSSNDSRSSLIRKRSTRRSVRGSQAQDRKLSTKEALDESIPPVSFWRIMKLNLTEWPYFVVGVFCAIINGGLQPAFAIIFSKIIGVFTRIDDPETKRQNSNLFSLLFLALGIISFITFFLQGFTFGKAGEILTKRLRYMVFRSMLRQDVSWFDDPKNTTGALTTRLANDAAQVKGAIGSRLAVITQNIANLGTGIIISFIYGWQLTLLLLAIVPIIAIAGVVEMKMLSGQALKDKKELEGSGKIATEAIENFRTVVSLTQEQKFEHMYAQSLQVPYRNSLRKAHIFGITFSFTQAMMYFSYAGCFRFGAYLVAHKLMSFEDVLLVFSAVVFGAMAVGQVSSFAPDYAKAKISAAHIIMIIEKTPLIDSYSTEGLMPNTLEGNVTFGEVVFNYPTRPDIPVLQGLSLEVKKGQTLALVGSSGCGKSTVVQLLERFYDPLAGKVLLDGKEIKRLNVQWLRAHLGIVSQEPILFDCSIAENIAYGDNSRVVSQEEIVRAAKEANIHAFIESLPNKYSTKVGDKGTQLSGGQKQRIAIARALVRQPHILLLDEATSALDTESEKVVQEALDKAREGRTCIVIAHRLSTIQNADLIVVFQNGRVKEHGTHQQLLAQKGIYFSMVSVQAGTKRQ
In series [2] the target is T1, MDR1 (P-gp, ABCB1) (Homo sapiens, UniProt P08183). Nature of the series: Inhibition of human recombinant MDR1 in cell membrane fraction preincubated for 5 mins at 0.1 uM measured after 40 mins by Pgp-Glo luciferase assay. The format is cell-based.
T1 sequence (P08183 whole entry): as above
The target in series [3] is T1, MDR1 (P-gp, ABCB1). Put plainly: Inhibition of human recombinant MDR1 in cell membrane fraction preincubated for 5 mins at 0.01 uM measured after 40 mins by Pgp-Glo luciferase assay. It counts as cell-based.
The target of series [4] is T1, MDR1 (P-gp, ABCB1). Put plainly: Inhibition of human recombinant MDR1 in cell membrane fraction preincubated for 5 mins at 10 uM measured after 40 mins by Pgp-Glo luciferase assay. The format is cell-based.
For series [5], the target named is T1, MDR1 (P-gp, ABCB1). Nature of the series: Inhibition of human recombinant MDR1 in cell membrane fraction preincubated for 5 mins at 1 uM measured after 40 mins by Pgp-Glo luciferase assay. The format is cell-based.
A short description of series [6]: Absolute bioavailability in dog. The settings on record: in vivo. The format is ADME, organism-based, Canis lupus familiaris.
For series [7], the target named is T1, MDR1 (P-gp, ABCB1). Put plainly: Inhibition of human recombinant MDR1 in cell membrane fraction preincubated for 5 mins at 100 uM measured after 40 mins by Pgp-Glo luciferase assay. It counts as cell-based.
A short description of series [8]: Oral bioavailability in human. The settings on record: in vivo.
Series [9] in a line: Fraction unbound in Sprague-Dawley rat at 5 mg/kg, po. The settings on record: in vivo.
Series [10] addresses T2, CYP3A4 (Homo sapiens, UniProt P08684). Put plainly: Inhibition of human recombinant CYP3A4 expressed in insect cell microsomes preincubated for 10 mins at 1 uM by fluorescence assay. The settings on record: recombinant enzyme.
Series [11] addresses T2, CYP3A4. Put plainly: Inhibition of human recombinant CYP3A4 expressed in insect cell microsomes preincubated for 10 mins at 10 uM by fluorescence assay. The conditions noted are these: recombinant enzyme.
For series [12], the target named is T2, CYP3A4. Nature of the series: Inhibition of human recombinant CYP3A4 expressed in insect cell microsomes preincubated for 10 mins at 0.1 uM by fluorescence assay. The settings on record: recombinant enzyme.

T2 sequence (P08684 whole entry): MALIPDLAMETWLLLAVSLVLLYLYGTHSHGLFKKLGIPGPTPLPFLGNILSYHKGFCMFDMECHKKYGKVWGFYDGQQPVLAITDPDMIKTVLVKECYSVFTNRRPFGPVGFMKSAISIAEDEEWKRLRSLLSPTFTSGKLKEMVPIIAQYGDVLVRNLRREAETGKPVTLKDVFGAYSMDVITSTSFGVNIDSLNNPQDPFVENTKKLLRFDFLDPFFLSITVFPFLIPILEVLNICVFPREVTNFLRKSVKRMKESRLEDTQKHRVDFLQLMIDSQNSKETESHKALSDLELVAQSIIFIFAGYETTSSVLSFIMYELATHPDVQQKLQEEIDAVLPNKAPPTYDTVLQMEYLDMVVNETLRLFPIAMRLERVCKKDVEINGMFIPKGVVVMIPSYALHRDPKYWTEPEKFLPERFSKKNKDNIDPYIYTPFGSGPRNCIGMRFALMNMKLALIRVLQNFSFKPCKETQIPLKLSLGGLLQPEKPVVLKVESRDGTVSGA

Broadly, the IC50 is the concentration that inhibits the measured activity by half. By inhibition is commonly meant the change of the read-out against control, counted positive when it falls. As a reminder, the bioavailability is dose-corrected exposure relative to a reference, in per cent. Low readings indicate poor availability, high ones good availability. As a reminder, the fraction unbound is free concentration divided by total concentration. Low readings indicate extensive binding, high ones weak binding. Take `COc1cc2c(cc1OC)C(=O)C(CC1CCN(Cc3ccccc3)CC1)C2` (stereo not drawn) [DONEPEZIL]: in the series on Plasma, the concentration is 60 nM. In series [1], the 50% inhibitory concentration (IC50) came out at 34.9 µM. Also, the inhibition at 40 min, 0.1 µM on MDR1 (P-gp, ABCB1) [2] is below 15%. Moreover, the inhibition at 40 min, 0.01 µM on MDR1 (P-gp, ABCB1) [3] was below 15%. The inhibition at 40 min, 10 µM at MDR1 (P-gp, ABCB1) [4] was 23.5%. Moreover, the inhibition at 40 min, 1 µM on MDR1 (P-gp, ABCB1) [5] worked out at 17.8%. For the same molecule, the figures for the bioavailability in [6] and in series [8] were 50% and 92%, respectively. The inhibition at 40 min, 100 µM at MDR1 (P-gp, ABCB1) [7] came out at 76%. In addition, in series [9], the free fraction (fraction unbound) came to 0.04.
Take `CC(=O)N1CCN(c2ccc(OCC3COC(Cn4ccnc4)(c4ccc(Cl)cc4Cl)O3)cc2)CC1` (stereo not drawn) [KETOCONAZOLE]: the inhibition at 1 µM on CYP3A4 [10] came to 87.2%. Further, the inhibition at 10 µM at CYP3A4 [11] was found to be 92.3%. In addition, at CYP3A4 [12], the inhibition at 0.1 µM was found to be 33.9%.
